Source: ChEMBL document CHEMBL3991601, “The target landscape of clinical kinase drugs” (Science, 2017)
The source made the active and inactive calls.

What was measured:
[1] = molecular target: T1, Long-chain-fatty-acid--CoA ligase 5 (Homo sapiens, UniProt Q9ULC5)
T1 sequence (Q9ULC5 whole entry): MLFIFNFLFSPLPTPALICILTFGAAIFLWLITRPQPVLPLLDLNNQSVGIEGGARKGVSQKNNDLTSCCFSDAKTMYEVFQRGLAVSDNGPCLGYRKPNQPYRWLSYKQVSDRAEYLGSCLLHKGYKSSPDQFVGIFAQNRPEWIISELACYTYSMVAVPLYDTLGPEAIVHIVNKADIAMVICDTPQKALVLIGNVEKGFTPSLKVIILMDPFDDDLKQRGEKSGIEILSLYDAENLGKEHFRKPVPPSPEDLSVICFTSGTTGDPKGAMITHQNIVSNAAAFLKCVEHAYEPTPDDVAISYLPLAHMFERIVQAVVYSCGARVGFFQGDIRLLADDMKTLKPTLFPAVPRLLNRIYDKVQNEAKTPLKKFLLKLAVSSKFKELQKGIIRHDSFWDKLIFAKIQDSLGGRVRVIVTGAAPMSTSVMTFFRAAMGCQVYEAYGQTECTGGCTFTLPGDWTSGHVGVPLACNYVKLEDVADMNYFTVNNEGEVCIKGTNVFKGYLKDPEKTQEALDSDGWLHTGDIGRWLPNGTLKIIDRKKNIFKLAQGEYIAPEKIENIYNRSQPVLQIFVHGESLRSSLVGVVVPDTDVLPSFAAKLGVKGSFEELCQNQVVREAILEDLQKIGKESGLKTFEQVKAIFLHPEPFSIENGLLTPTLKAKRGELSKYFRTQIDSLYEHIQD

[2] = molecular target: Membrane-associated progesterone receptor component 1 (Homo sapiens, UniProt O00264)
[3] = molecular target: Serine/threonine-protein kinase PLK1 (Homo sapiens, UniProt P53350)
[4] = molecular target: T2, Breakpoint cluster region protein (Homo sapiens, UniProt P11274)
T2 sequence (P11274 whole entry): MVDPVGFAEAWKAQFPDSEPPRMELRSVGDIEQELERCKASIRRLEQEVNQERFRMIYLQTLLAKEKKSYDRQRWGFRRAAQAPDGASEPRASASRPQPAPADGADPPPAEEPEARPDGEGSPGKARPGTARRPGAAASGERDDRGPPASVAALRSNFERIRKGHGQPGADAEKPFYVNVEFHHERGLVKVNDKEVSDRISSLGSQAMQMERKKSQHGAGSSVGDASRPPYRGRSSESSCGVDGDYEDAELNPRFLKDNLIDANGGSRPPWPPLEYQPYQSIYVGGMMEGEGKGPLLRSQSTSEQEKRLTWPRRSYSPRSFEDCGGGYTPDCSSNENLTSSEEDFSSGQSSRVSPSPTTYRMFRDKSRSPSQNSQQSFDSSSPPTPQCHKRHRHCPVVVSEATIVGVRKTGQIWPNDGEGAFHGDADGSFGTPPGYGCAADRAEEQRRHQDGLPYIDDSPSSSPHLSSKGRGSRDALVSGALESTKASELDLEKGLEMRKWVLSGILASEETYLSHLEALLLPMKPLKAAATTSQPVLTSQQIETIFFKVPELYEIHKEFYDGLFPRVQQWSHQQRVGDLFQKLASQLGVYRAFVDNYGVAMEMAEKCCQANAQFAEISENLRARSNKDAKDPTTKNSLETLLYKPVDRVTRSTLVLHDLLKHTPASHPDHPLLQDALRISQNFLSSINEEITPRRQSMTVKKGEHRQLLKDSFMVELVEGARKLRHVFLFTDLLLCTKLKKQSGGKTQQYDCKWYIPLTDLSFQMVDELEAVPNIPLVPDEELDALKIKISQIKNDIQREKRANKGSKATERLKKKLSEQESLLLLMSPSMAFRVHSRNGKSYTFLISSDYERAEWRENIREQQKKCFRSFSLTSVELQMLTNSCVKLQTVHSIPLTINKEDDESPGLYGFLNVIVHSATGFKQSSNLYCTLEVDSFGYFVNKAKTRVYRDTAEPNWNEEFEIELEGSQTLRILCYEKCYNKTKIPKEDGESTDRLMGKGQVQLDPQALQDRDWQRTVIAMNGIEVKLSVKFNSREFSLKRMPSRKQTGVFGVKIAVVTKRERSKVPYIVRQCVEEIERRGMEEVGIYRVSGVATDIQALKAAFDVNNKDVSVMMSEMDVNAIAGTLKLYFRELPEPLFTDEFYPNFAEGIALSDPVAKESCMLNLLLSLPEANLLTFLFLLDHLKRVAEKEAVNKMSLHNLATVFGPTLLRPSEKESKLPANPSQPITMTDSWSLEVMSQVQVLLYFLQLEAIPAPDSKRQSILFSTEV

[5] = molecular target: High affinity nerve growth factor receptor (Homo sapiens, UniProt P04629)
[6] = molecular target: Serine/threonine-protein kinase pim-2 (Homo sapiens, UniProt Q9P1W9)
[7] = molecular target: Cyclin-dependent kinase 17 (Homo sapiens, UniProt Q00537)
[8] = molecular target: T3, Ras-related protein Rab-10 (Homo sapiens, UniProt P61026)
T3 sequence (P61026 whole entry): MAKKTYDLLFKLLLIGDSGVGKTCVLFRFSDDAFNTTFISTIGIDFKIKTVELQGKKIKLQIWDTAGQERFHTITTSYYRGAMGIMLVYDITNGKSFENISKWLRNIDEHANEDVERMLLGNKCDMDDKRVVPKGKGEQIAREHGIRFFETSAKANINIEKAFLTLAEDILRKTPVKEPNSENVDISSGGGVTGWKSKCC

[9] = molecular target: Cyclin-dependent kinase 3 (Homo sapiens, UniProt Q00526)
[10] = molecular target: T4, Electron transfer flavoprotein subunit beta (Homo sapiens, UniProt P38117)
T4 sequence (P38117 whole entry): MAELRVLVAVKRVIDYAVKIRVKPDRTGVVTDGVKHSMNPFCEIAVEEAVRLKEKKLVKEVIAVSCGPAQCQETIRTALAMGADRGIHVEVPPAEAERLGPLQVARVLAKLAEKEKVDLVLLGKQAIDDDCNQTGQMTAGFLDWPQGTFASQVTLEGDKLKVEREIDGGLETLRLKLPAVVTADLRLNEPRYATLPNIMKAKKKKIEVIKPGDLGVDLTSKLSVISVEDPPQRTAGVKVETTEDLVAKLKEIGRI

[11] = molecular target: Serine/threonine-protein kinase Nek7 (Homo sapiens, UniProt Q8TDX7)
[12] = molecular target: Ras-related protein Rab-6A (Homo sapiens, UniProt P20340)
[13] = molecular target: Choline-phosphate cytidylyltransferase A (Homo sapiens, UniProt P49585)
Note: in the data inactive means no Kd found up to 30 µM.

Chain of High affinity nerve growth factor receptor (P04629 whole entry): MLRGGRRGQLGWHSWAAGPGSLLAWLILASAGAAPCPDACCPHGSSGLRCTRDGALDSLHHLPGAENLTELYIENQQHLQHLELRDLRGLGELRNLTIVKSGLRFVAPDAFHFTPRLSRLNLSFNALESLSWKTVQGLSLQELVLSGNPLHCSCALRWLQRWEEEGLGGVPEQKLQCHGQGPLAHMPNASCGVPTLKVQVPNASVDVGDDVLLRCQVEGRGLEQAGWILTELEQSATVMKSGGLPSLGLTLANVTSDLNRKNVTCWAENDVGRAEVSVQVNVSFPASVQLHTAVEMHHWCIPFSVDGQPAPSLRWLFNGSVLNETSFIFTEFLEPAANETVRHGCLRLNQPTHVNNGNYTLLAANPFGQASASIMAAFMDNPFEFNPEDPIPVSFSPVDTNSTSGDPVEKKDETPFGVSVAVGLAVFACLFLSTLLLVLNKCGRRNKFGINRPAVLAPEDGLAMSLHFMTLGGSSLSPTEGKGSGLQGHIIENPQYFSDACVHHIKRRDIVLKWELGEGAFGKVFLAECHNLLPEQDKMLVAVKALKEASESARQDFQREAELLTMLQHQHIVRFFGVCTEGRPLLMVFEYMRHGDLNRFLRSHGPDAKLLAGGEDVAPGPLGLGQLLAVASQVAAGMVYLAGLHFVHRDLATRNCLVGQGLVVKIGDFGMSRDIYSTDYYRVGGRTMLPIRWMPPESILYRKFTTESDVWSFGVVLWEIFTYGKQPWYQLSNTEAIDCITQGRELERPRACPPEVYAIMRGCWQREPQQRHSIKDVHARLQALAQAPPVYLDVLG
Chain of Membrane-associated progesterone receptor component 1 (O00264 whole entry): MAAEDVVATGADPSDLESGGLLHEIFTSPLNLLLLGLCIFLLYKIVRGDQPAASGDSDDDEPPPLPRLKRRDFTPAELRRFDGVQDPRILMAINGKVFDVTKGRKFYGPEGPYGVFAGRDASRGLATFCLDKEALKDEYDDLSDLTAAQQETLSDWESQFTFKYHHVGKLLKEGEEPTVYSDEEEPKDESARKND
Chain of Choline-phosphate cytidylyltransferase A (P49585 whole entry): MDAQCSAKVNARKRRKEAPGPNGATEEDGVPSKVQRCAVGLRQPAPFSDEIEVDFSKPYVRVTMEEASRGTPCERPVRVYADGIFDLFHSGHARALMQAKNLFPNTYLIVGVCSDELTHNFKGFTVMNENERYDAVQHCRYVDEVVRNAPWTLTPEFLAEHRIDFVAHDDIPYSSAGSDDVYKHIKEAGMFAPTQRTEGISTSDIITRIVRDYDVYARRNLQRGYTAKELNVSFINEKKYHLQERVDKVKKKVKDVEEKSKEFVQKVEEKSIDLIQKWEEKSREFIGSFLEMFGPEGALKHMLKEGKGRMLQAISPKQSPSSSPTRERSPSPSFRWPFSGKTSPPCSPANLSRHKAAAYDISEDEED
Chain of Serine/threonine-protein kinase pim-2 (Q9P1W9 whole entry): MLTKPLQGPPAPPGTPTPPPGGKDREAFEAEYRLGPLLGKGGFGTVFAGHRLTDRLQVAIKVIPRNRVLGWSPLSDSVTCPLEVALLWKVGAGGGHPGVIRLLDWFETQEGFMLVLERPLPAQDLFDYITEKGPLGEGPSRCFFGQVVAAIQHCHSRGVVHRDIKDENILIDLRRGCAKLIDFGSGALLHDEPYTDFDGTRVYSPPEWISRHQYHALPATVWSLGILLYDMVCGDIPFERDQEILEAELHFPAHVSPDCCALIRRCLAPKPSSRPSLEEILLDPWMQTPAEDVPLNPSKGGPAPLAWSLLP
Chain of Ras-related protein Rab-6A (P20340 whole entry): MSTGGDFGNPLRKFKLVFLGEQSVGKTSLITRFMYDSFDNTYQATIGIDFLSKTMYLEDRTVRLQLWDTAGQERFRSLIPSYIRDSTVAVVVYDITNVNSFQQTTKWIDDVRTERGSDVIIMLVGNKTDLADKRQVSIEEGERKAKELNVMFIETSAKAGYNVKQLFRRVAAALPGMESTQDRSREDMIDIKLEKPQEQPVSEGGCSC
Chain of Cyclin-dependent kinase 3 (Q00526 whole entry): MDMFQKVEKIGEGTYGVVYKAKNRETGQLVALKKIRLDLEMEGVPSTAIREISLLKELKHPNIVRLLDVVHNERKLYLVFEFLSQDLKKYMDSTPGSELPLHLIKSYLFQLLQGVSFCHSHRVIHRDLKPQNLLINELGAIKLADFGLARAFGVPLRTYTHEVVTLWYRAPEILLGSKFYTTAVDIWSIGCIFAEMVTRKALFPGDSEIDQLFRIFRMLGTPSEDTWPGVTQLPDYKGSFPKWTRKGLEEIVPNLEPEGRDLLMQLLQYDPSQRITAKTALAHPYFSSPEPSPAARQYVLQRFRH
Chain of Cyclin-dependent kinase 17 (Q00537 whole entry): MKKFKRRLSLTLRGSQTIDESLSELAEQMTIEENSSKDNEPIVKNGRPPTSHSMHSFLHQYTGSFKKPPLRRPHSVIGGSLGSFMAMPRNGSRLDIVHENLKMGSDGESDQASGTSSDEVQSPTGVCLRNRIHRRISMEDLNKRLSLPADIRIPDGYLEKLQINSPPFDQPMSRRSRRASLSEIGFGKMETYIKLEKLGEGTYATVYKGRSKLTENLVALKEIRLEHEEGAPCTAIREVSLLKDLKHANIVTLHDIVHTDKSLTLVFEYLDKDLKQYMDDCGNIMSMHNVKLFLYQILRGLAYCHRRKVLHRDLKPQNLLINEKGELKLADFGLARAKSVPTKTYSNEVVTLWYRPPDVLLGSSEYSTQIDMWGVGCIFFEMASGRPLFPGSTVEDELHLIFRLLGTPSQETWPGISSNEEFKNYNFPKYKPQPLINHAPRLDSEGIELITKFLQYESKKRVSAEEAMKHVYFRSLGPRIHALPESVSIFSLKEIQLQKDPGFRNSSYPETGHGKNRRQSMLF
Chain of Serine/threonine-protein kinase Nek7 (Q8TDX7 whole entry): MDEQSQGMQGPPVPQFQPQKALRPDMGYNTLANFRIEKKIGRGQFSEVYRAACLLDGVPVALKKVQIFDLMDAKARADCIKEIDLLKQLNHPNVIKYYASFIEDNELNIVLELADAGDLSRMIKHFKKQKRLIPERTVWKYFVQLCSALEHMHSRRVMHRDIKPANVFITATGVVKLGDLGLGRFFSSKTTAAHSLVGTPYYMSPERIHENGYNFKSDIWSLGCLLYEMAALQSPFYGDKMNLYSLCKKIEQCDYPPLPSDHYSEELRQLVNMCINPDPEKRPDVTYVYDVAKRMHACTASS
Chain of Serine/threonine-protein kinase PLK1 (P53350 whole entry): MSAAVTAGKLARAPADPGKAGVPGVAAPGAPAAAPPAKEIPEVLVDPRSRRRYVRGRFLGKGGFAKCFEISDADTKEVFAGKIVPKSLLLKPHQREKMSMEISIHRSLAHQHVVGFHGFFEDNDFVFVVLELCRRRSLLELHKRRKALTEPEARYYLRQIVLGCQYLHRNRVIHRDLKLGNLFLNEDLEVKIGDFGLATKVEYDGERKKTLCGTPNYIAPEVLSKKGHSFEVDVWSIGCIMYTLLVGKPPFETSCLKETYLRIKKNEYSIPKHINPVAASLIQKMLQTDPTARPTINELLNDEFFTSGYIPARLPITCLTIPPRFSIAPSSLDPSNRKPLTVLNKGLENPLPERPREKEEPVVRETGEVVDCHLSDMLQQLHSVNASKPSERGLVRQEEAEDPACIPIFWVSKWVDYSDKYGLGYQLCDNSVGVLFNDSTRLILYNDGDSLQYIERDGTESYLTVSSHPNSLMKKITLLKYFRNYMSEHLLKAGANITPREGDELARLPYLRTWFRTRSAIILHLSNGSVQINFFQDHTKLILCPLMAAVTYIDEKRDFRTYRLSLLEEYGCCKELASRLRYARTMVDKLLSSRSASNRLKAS

SMILES | Kd [1] | Kd [2] | Kd [3] | Kd [4] | Kd [5] | Kd [6] | Kd [7] | Kd [8] | Kd [9] | Kd [10] | Kd [11] | Kd [12] | Kd [13]
C=CC(=O)N1CCC[C@H](n2c(=O)n(-c3ccc(Oc4ccccc4)cc3)c3c(N)ncnc32)C1 | > 30 µM (inactive) | > 30 µM (inactive) | > 30 µM (inactive) | > 30 µM (inactive) | > 30 µM (inactive) | > 30 µM (inactive) | > 30 µM (inactive) | > 30 µM (inactive) | > 30 µM (inactive) | > 30 µM (inactive) | – | – | –
Nc1ncnc2c1c(-c1cccc(OCc3ccccc3)c1)cn2[C@H]1C[C@@H](CN2CCC2)C1 [AEW-541] | > 30 µM (inactive) | > 30 µM (inactive) | > 30 µM (inactive) | > 30 µM (inactive) | > 30 µM (inactive) | > 30 µM (inactive) | > 30 µM (inactive) | > 30 µM (inactive) | > 30 µM (inactive) | – | > 30 µM (inactive) | > 30 µM (inactive) | –
CNC(=O)c1ccccc1Sc1ccc2c(/C=C/c3ccccn3)n[nH]c2c1 [AXITINIB] | > 30 µM (inactive) | – | – | 0.188 µM (active) | – | – | – | > 30 µM (inactive) | – | > 30 µM (inactive) | – | > 30 µM (inactive) | > 30 µM (inactive)
CCn1c(C(=O)N(C2CC2)C2CC2)cc2c3c(ncn3C)c(Nc3cc(C)n(C)n3)nc21 [BMS-911543] | > 30 µM (inactive) | > 30 µM (inactive) | > 30 µM (inactive) | > 30 µM (inactive) | – | – | > 30 µM (inactive) | > 30 µM (inactive) | > 30 µM (inactive) | > 30 µM (inactive) | > 30 µM (inactive) | > 30 µM (inactive) | –
COc1cc2ncnc(Oc3cccc(NC(=O)Nc4cc(C(C)(C)C(F)(F)F)on4)c3)c2cc1OC [CEP-32496] | – | > 30 µM (inactive) | > 30 µM (inactive) | 0.041 µM (active) | > 30 µM (inactive) | > 30 µM (inactive) | > 30 µM (inactive) | > 30 µM (inactive) | > 30 µM (inactive) | > 30 µM (inactive) | – | > 30 µM (inactive) | –
Cc1cc(Nc2ncc(Cl)c(Nc3ccccc3S(=O)(=O)C(C)C)n2)c(OC(C)C)cc1C1CCNCC1 [CERITINIB] | > 30 µM (inactive) | – | > 30 µM (inactive) | > 30 µM (inactive) | > 30 µM (inactive) | > 30 µM (inactive) | > 30 µM (inactive) | > 30 µM (inactive) | > 30 µM (inactive) | – | > 30 µM (inactive) | > 30 µM (inactive) | –
Cc1cccc(-c2nn3c(c2-c2ccnc4ccc(C(N)=O)cc24)CCC3)n1 [GALUNISERTIB] | > 30 µM (inactive) | > 30 µM (inactive) | > 30 µM (inactive) | > 30 µM (inactive) | > 30 µM (inactive) | > 30 µM (inactive) | > 30 µM (inactive) | > 30 µM (inactive) | > 30 µM (inactive) | > 30 µM (inactive) | > 30 µM (inactive) | > 30 µM (inactive) | –
C[C@@H](Oc1cc(-n2cnc3ccc(CN4CCN(C)CC4)cc32)sc1C(N)=O)c1ccccc1C(F)(F)F [GSK-461364] | > 30 µM (inactive) | > 30 µM (inactive) | – | > 30 µM (inactive) | – | – | – | > 30 µM (inactive) | – | > 30 µM (inactive) | – | > 30 µM (inactive) | > 30 µM (inactive)
Cn1cc(-c2cnc3ccc4ccc(CS(=O)(=O)NCc5ccccn5)cc4c(=O)c3c2)cn1 [MK-8033] | > 30 µM (inactive) | > 30 µM (inactive) | > 30 µM (inactive) | > 30 µM (inactive) | > 30 µM (inactive) | > 30 µM (inactive) | > 30 µM (inactive) | > 30 µM (inactive) | > 30 µM (inactive) | > 30 µM (inactive) | > 30 µM (inactive) | > 30 µM (inactive) | –
COc1ncc(-c2ccc3nccc(-c4ccnnc4)c3c2)cc1NS(=O)(=O)c1ccc(F)cc1F [OMIPALISIB] | > 30 µM (inactive) | > 30 µM (inactive) | > 30 µM (inactive) | > 30 µM (inactive) | > 30 µM (inactive) | – | > 30 µM (inactive) | > 30 µM (inactive) | > 30 µM (inactive) | > 30 µM (inactive) | > 30 µM (inactive) | > 30 µM (inactive) | –
CCOc1cc2ncc(C#N)c(Nc3ccc(F)c(Cl)c3)c2cc1NC(=O)/C=C/CN(C)C [PELITINIB] | – | > 30 µM (inactive) | > 30 µM (inactive) | 1.19 µM (active) | > 30 µM (inactive) | > 30 µM (inactive) | > 30 µM (inactive) | > 30 µM (inactive) | > 30 µM (inactive) | > 30 µM (inactive) | > 30 µM (inactive) | > 30 µM (inactive) | –
CC(=O)NCC(=O)N1[C@@H]2CC[C@H]1c1ccc(Nc3ncc(C(F)(F)F)c(NC4CCC4)n3)cc12 [PF-03814735] | > 30 µM (inactive) | > 30 µM (inactive) | – | 10.8 µM (active) | – | – | > 30 µM (inactive) | > 30 µM (inactive) | 1.53 µM (active) | – | – | > 30 µM (inactive) | > 30 µM (inactive)
O=c1[nH]ccc2cc(OC3CCNCC3)ccc12 [SAR-407899 FREE BASE] | > 30 µM (inactive) | > 30 µM (inactive) | > 30 µM (inactive) | > 30 µM (inactive) | > 30 µM (inactive) | > 30 µM (inactive) | > 30 µM (inactive) | > 30 µM (inactive) | > 30 µM (inactive) | > 30 µM (inactive) | > 30 µM (inactive) | > 30 µM (inactive) | –
CN1CCN(CCOc2cc(OC3CCOCC3)c3c(Nc4c(Cl)ccc5c4OCO5)ncnc3c2)CC1 [SARACATINIB] | > 30 µM (inactive) | – | > 30 µM (inactive) | 0.016 µM (active) | > 30 µM (inactive) | > 30 µM (inactive) | > 30 µM (inactive) | > 30 µM (inactive) | > 30 µM (inactive) | – | > 30 µM (inactive) | > 30 µM (inactive) | –
